Key:
[1] = Test 1: Solution Stability Test; type: physicochemical; settings: 37° C., one hour, about 50 μg/mL; for Compound's percent residue (%) pH 6.5: 20 mM phosphate buffer (pH 6.5); for Compound's percent residue (%) pH 1.2: hydrochloric acid solution (pH 1.2)
Protocol: Inventive Compounds (I) were tested for their stability in solutions simulating the gastric and small intestine's digestive fluids identified below.
The percent residues of Inventive Compounds (I) in a hydrochloric acid solution (pH 1.2) and 20 mM phosphate buffer (pH 6.5) were measured in accordance with the following test method.
A test compound was dissolved in a hydrochloric acid solution (pH 1.2) containing hydrochloric acid and sodium chloride or a 20 mM phosphate buffer (pH 6.5) containing disodium hydrogenphosphate, sodium dihydrogenphosphate and sodium chloride to prepare a solution with a concentration of about 50 μg/mL (near the solubility if undissolved). The solution was incubated at 37° C. for an hour and the compound's concentration before and after the incubation was quantified by high-performance liquid chromatography to calculate the percent residue of the compound.

[2] = Test 4: percent generation of Compound (IV) in human small intestine S9; type: in vitro ADME; settings: 3 μM, 1 mg protein/mL, 37° C. x 1 hr
Protocol: A test to determine the percent generation of Compound (IV) in human intestine S9 was conducted for Inventive Compounds (I) in accordance with the following method.
Inventive Compounds were incubated (37° C.×1 hr) in a 0.1 M phosphate buffer (pH 7.4) together with a human intestine S9 fraction (Xenotech, LLC/CP710571/Lot, 710571) in the presence of Mg^2+ (5 mM), Ca^2+ (5 mM) and Zn^2+ (0.1 mM). The final concentrations of each Inventive Compound and the small intestine S9 protein were adjusted to 3 μM and 1 mg protein/mL, respectively. To the incubated reaction mixture, 3 volumes of DMSO was added, followed by stirring and centrifugation at 3000 rpm (4° C.×10 min). The resulting supernatant was subjected to analysis by a liquid chromatography-tandem mass spectrometry (LC-MS/MS) system. The lower quantitation limit was 0.3 μM for both Inventive Compounds (I) and Compound (IV).
The LC-MS/MS system used in the measurement was equipped with Waters XBridge Amide (3.5 μm, 50 mm×4.6 mm I.D.), Waters Atlantis T3 (3 μm, 50 mm×4.6 mm I.D.), or Shimadzu Shim-pack XR-ODS (2.2 μm, 30 mm×3.0 mm I.D.) as a separation column. The mobile phase was a 0.1% formic acid/acetonitrile solution or a 0.1% formic acid/methanol solution (flow rate: 0.7-1.3 mL/min) and the analyte was eluted in a linear gradient mode. MS/MS detection of Inventive Compounds (I) and Compound (IV) was performed using an API4000 or Triple quad 5500 system with TurbolonSpray interface (both being products of AB SCIEX) in either a positive or negative ion detection mode. The percent generation of Compound (IV) in human small intestine S9 is shown in the following Table 6 with respect to Inventive Compounds.

| Structure (SMILES) | Compound's percent residue (%) pH 6.5 [1] | Compound's percent residue (%) pH 1.2 [1] | Percent generation (%) of Compound IV in human small intestine S9 [2] |
| --- | --- | --- | --- |
| N[C@]1(C(=O)O)[C@H]2[C@@H](C[C@@H]1F)[C@@H]2C(=O)OCOC(=O)C12CC3CC(CC(C3)C1)C2 [Ex. A-1, (1S,2S,3S,5R,6S)-6-(((adamantane-1-carbonyl)oxy)methoxy)carbonyl-2-amino-3-fluorobicyclo[3.1.0]hexane-2-carboxylic acid] | 99% | 100% |  |
| CC(OC(=O)[C@H]1[C@@H]2C[C@H](F)[C@@](N)(C(=O)O)[C@@H]21)OC(=O)C12CC3CC(CC(C3)C1)C2 (stereo partly drawn) [Ex. A-2, (1S,2S,3S,5R,6S)-6-(1-((adamantane-1-carbonyl)oxy)ethoxy)carbonyl-2-amino-3-fluorobicyclo[3.1.0]hexane-2-carboxylic acid] | 101% | 101% |  |
| CC(OC(=O)O[C@@H]1C[C@H](C)CC[C@H]1C(C)C)OC(=O)[C@H]1[C@@H]2C[C@H](F)[C@@](N)(C(=O)O)[C@@H]21 (stereo partly drawn) [Ex. A-3, (1S,2S,3S,5R,6S)-2-amino-3-fluoro-6-((1-(((((1R,2S,5R)-2-isopropyl-5-methylcyclohexyl)oxy)carbonyl)oxy)ethoxy)carbonyl)bicyclo[3.1.0]hexane-2-carboxylic acid] | 100% | 100% |  |
| CC(C)[C@@H]1CC[C@@H](C)C[C@H]1OC(=O)OCOC(=O)[C@H]1[C@@H]2C[C@H](F)[C@@](N)(C(=O)O)[C@@H]21 [Ex. A-4, (1S,2S,3S,5R,6S)-2-amino-3-fluoro-6-(((((((1R,2S,5R)-2-isopropyl-5-methylcyclohexyl)oxy)carbonyl)oxy)methoxy)carbonyl)bicyclo[3.1.0]hexane-2-carboxylic acid] | 98% | 99% |  |
| CC(C)(C)C(=O)OCOC(=O)[C@H]1[C@@H]2C[C@H](F)[C@@](N)(C(=O)O)[C@@H]21 [Ex. A-7, (1S,2S,3S,5R,6S)-2-amino-3-fluoro-6-(((pivaloyloxy)methoxy)carbonyl)bicyclo[3.1.0]hexane-2-carboxylic acid] | 99% | 100% |  |
| CC(C)COC(C)OC(=O)[C@H]1[C@@H]2C[C@H](F)[C@@](N)(C(=O)O)[C@@H]21.Cl (stereo partly drawn) [Ex. A-8, (1S,2S,3S,5R,6S)-2-amino-3-fluoro-6-((1-(isobutyloxy)ethoxy)carbonyl)bicyclo[3.1.0]hexane-2-carboxylic acid hydrochloride] | 101% | 100% |  |
| CC(OC(=O)OC1CCCCC1)OC(=O)[C@H]1[C@@H]2C[C@H](F)[C@@](N)(C(=O)O)[C@@H]21 (stereo partly drawn) [Ex. A-10, (1S,2S,3S,5R,6S)-2-amino-6-((1-(((cyclohexyloxy)carbonyl)oxy)ethoxy)carbonyl)-3-fluorobicyclo[3.1.0]hexane-2-carboxylic acid] | 97% | 100% |  |
| N[C@]1(C(=O)O)[C@H]2[C@@H](C[C@@H]1F)[C@@H]2C(=O)OCOC(=O)OC12CC3CC(CC(C3)C1)C2 [Ex. A-13, (1S,2S,3S,5R,6S)-6-(((((adamantan-1-yloxy)carbonyl)oxy)methoxy)carbonyl)-2-amino-3-fluorobicyclo[3.1.0]hexane-2-carboxylic acid] | 93% | 93% |  |
| CC(OC(=O)OC12CC3CC(CC(C3)C1)C2)OC(=O)[C@H]1[C@@H]2C[C@H](F)[C@@](N)(C(=O)O)[C@@H]21 (stereo partly drawn) [Ex. A-14, (1S,2S,3S,5R,6S)-6-((1-(((adamantan-1-yloxy)carbonyl)oxy)ethoxy)carbonyl)-2-amino-3-fluorobicyclo[3.1.0]hexane-2-carboxylic acid] | 97% | 95% |  |
| CC(C)OC(=O)OC(C)OC(=O)[C@H]1[C@@H]2C[C@H](F)[C@@](N)(C(=O)O)[C@@H]21.O=C(O)C(F)(F)F (stereo partly drawn) [Ex. A-15, (1S,2S,3S,5R,6S)-2-amino-3-fluoro-6-((1-((isopropyloxycarbonyl)oxy)ethoxy)carbonyl)bicyclo[3.1.0]hexane-2-carboxylic acid trifluoroacetate] | 101% | 102% |  |
| Cc1oc(=O)oc1COC(=O)[C@H]1[C@@H]2C[C@H](F)[C@@](N)(C(=O)O)[C@@H]21 [Ex. A-16, (1S,2S,3S,5R,6S)-2-amino-3-fluoro-6-(((5-methyl-2-oxo-1,3-dioxol-4-yl)methoxy)carbonyl)bicyclo[3.1.0]hexane-2-carboxylic acid] | 98% | 99% |  |
| Cl.N[C@]1(C(=O)O)[C@H]2[C@@H](C[C@@H]1F)[C@@H]2C(=O)OC1OC(=O)c2ccccc21 (stereo partly drawn) [Ex. A-17, (1S,2S,3S,5R,6S)-2-amino-3-fluorobicyclo[3.1.0]hexane-2,6-dicarboxylic acid 6-(3-phthalidyl) ester hydrochloride] | 97% | 99% |  |
| C[C@H](N)C(=O)N[C@]1(C(=O)O)[C@H]2[C@@H](C[C@@H]1F)[C@@H]2C(=O)O.Cl [Ex. D-2, (1S,2S,3S,5R,6S)-2-((S)-2-aminopropanamide)-3-fluorobicyclo[3.1.0]hexane-2,6-dicarboxylic acid hydrochloride] | 103% | 100% | 17.8% |
| Cl.NCCCC[C@H](N)C(=O)N[C@]1(C(=O)O)[C@H]2[C@@H](C[C@@H]1F)[C@@H]2C(=O)O [Ex. D-5, (1S,2S,3S,5R,6S)-2-((S)-2,6-diaminohexanamide)-3-fluorobicyclo[3.1.0]hexane-2,6-dicarboxylic acid hydrochloride] |  |  | 25.9% |
| C[C@H](N)C(=O)N[C@@H](C)C(=O)N[C@]1(C(=O)O)[C@H]2[C@@H](C[C@@H]1F)[C@@H]2C(=O)O.Cl [Ex. D-8, (1S,2S,3S,5R,6S)-2-((S)-2-((S)-2-aminopropanamide)propanamide)-3-fluorobicyclo[3.1.0]hexane-2,6-dicarboxylic acid hydrochloride] |  |  | 11.7% |
| Cl.N[C@@H](Cc1ccccc1)C(=O)N[C@]1(C(=O)O)[C@H]2[C@@H](C[C@@H]1F)[C@@H]2C(=O)O [Ex. D-9, (1S,2S,3S,5R,6S)-2-((S)-2-amino-3-phenylpropanamide)-3-fluorobicyclo[3.1.0]hexane-2,6-dicarboxylic acid hydrochloride] |  |  | <10% |
| Cl.O=C(O)[C@H]1[C@@H]2C[C@H](F)[C@@](NC(=O)[C@@H]3CCCN3)(C(=O)O)[C@@H]21 [Ex. D-10, (1S,2S,3S,5R,6S)-3-fluoro-2-((S)-pyrrolidine-2-(carboxyamide))bicyclo[3.1.0]hexane-2,6-dicarboxylic acid hydrochloride] |  |  | <10% |
| CSCC[C@@H](N)C(=O)N[C@]1(C(=O)O)[C@H]2[C@@H](C[C@@H]1F)[C@@H]2C(=O)O.Cl [Ex. D-11, (1S,2S,3S,5R,6S)-2-((R)-2-amino-4-(methylthio)butanamide)-3-fluorobicyclo[3.1.0]hexane-2,6-dicarboxylic acid hydrochloride] |  |  | <10% |
